This note sets out measurements from US10011611B2, “Histone deacetylase inhibitors and methods for use thereof” (Reaction Biology Corp., priority 2015, dated 2018).

One test concerns the target Human HDAC2 (Homo sapiens (Human), UniProt Q92769). In words: HDAC2 biochemical fluorescent activity assay. Conditions: substrate Arg-His-Lys-Lys(Ac).
In a further test the target is Recombinant human HDAC6 (Homo sapiens (Human), UniProt Q9UBN7). The experiment in a line: HDAC6 biochemical fluorescent activity assay. Conditions: substrate Arg-His-Lys-Lys(Ac).
For another test, the target named is Human HDAC1 (Homo sapiens (Human), UniProt Q13547). The experiment in a line: HDAC1 biochemical fluorescent activity assay. Conditions: substrate Arg-His-Lys-Lys(Ac).
The target of a further test is Human HDAC5 (Homo sapiens (Human), UniProt Q9UQL6). In words: HDAC5 biochemical fluorescent activity assay.
A further test concerns the target Human HDAC11 (Homo sapiens (Human), UniProt Q96DB2). The experiment in a line: HDAC11 biochemical fluorescent activity assay. Conditions: substrate Arg-His-Lys-Lys(Ac).
Another test addresses Human HDAC8 (Homo sapiens (Human), UniProt Q9BY41). In words: HDAC8 biochemical fluorescent activity assay. Conditions: substrate Arg-His-Lys(Ac)-Lys(Ac).
Another test deals with Human HDAC10 (Homo sapiens (Human), UniProt Q969S8). In words: HDAC10 biochemical fluorescent activity assay. Conditions: substrate Arg-His-Lys-Lys(Ac).

Each structure is given as a SMILES string.

Sequence of Human HDAC1 (Q13547 whole entry): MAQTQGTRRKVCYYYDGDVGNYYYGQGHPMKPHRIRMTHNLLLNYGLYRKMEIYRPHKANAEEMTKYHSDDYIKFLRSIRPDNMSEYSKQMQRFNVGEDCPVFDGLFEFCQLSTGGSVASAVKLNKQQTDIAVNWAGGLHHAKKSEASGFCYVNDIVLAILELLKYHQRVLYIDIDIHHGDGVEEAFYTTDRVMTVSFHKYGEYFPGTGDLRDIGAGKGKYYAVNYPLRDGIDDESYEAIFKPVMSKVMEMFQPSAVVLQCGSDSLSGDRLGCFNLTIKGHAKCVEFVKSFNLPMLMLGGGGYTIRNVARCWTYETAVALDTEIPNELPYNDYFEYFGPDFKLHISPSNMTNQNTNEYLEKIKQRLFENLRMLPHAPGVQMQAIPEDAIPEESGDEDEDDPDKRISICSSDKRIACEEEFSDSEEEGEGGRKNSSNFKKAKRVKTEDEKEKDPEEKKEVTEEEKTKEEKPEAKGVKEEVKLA
Sequence of Human HDAC5 (Q9UQL6 whole entry): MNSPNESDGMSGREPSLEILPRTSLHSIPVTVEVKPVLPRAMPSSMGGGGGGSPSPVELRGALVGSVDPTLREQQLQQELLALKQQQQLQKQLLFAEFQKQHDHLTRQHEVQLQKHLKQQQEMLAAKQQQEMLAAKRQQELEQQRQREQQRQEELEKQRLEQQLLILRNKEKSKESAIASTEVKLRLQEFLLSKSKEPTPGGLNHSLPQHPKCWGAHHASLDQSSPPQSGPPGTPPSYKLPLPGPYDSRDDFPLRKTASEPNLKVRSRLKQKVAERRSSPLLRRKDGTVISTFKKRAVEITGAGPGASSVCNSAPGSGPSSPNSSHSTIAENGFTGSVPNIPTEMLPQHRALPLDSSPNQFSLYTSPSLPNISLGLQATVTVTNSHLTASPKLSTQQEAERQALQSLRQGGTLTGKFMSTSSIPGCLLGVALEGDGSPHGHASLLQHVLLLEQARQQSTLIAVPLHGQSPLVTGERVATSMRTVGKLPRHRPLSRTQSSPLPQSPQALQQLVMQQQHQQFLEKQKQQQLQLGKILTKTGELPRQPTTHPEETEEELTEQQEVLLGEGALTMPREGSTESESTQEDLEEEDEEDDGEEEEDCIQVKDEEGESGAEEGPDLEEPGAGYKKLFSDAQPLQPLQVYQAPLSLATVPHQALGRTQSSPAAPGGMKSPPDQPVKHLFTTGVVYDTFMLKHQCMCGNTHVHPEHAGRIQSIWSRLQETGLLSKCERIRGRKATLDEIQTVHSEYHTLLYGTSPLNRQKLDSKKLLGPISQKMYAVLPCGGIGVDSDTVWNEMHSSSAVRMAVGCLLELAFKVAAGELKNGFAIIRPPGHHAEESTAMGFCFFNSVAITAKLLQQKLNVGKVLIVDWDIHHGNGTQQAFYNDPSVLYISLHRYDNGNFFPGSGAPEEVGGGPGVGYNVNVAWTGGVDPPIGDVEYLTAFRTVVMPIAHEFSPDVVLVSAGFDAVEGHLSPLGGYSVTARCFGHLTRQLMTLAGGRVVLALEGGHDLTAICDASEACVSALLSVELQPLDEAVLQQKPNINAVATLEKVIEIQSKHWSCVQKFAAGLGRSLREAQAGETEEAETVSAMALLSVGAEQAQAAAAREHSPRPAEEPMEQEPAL
Sequence of Human HDAC2 (Q92769 whole entry): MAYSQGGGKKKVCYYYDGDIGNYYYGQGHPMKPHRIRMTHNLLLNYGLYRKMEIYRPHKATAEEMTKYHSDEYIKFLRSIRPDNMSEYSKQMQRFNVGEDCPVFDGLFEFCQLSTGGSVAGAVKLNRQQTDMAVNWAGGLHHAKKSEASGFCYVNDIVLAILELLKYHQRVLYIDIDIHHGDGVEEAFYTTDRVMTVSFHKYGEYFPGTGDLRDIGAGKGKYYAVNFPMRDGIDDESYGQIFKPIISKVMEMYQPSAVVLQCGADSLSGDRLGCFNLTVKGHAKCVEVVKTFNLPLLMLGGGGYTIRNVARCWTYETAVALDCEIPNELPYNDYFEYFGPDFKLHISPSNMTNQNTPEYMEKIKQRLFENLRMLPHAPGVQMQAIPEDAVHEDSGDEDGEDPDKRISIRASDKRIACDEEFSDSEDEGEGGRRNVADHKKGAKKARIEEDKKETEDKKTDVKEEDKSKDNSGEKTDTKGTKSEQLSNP
Sequence of Recombinant human HDAC6 (Q9UBN7 whole entry): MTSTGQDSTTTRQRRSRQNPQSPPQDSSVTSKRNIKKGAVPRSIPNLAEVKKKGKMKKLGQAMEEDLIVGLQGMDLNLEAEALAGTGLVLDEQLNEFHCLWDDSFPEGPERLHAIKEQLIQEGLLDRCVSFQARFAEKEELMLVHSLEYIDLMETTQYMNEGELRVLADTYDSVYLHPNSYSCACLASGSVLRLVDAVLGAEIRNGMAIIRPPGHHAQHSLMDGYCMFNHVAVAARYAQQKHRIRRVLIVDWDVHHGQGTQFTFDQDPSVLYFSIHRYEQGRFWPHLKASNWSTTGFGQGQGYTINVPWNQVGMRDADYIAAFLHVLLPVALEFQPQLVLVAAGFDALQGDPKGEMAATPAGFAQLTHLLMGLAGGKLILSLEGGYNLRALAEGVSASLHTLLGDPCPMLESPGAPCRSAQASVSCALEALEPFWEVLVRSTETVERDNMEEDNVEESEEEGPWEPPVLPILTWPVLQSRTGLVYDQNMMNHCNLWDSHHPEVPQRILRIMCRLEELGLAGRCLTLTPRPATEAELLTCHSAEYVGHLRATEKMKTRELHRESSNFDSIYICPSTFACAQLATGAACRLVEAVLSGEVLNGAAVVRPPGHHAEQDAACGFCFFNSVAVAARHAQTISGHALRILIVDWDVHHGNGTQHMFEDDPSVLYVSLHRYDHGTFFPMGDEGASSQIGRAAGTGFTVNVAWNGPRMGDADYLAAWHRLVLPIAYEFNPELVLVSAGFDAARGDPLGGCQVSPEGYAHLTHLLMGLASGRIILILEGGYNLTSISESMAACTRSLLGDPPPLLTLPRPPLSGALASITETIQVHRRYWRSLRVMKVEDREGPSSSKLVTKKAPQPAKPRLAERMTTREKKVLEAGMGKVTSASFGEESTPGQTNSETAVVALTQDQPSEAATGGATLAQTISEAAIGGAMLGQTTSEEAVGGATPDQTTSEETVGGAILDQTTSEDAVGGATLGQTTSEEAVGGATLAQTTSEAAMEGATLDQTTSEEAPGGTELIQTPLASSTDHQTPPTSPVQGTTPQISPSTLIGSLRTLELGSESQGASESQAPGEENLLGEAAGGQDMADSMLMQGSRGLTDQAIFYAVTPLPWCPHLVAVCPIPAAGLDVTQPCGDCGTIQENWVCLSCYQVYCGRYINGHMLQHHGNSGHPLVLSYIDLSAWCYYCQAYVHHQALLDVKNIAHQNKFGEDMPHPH
Sequence of Human HDAC10 (Q969S8 1-481): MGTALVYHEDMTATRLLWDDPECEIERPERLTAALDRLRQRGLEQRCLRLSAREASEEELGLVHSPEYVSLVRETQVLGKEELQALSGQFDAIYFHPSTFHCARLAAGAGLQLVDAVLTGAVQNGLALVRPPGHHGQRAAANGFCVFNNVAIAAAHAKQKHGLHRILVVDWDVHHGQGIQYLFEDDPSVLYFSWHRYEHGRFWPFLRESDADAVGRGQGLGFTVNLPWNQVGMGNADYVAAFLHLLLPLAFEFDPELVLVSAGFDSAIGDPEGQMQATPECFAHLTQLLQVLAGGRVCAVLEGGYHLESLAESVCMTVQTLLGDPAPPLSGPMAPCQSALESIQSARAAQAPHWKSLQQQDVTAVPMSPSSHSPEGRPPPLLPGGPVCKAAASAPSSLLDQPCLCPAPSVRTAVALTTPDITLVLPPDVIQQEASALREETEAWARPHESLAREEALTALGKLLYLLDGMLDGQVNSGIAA
Sequence of Human HDAC11 (Q96DB2 whole entry): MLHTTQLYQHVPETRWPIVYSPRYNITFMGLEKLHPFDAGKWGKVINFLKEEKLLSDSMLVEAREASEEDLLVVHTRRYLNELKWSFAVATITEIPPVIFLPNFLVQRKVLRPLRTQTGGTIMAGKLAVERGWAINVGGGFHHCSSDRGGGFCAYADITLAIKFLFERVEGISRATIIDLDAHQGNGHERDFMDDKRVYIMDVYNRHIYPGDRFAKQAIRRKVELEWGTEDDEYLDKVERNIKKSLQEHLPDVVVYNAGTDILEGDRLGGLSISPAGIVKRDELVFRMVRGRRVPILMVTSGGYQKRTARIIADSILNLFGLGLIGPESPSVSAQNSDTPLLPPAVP
Sequence of Human HDAC8 (Q9BY41 whole entry): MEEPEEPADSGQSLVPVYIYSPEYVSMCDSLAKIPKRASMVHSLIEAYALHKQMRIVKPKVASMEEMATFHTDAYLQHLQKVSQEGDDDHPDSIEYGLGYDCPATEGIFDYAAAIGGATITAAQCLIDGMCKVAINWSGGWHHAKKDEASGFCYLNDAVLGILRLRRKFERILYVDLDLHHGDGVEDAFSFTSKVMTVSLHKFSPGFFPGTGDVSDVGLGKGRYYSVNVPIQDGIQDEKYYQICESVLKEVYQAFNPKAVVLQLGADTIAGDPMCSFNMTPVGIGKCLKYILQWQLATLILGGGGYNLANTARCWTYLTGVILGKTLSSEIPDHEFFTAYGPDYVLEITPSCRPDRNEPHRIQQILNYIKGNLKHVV

As a reminder, the IC50 is the concentration that inhibits the measured activity by half. As for `O=C(NO)c1ccc(Cn2sc3ncccc3c2=O)cc1` [RBC-3001-A, N-hydroxy-4-((3-oxoisothiazolo[5,4-b]pyridin-2(3H)-yl)methyl)benzamide], the IC50 on Human HDAC2 was 5400 nM; on Recombinant human HDAC6 it was 0.958 nM; at Human HDAC1 it was 175 nM; at Human HDAC5 it was 508 nM; against Human HDAC11, 2840 nM; against Human HDAC8 it was 27.1 nM. This compound returned an IC50 against Human HDAC10 of 4260 nM.
